Measured values published in ChEMBL document CHEMBL3044961, “Rapid synthesis, characterization, anticancer and antimicrobial activity studies of substituted thiadiazoles and their dinucleating ligand metal complexes” (Med Chem Res, 2012).
Activity calls are given as the source filed them. No cut-off for these calls is given here.

Assays:
[1] = test system: Aspergillus flavus; test: Antifungal activity against Aspergillus flavus at 1 ug/ml after 48 hr by well diffusion method; format: functional; conditions: read-out: IZ
[2] = test system: U-937; test: Cytotoxicity against Homo sapiens (human) U937 cells after 96 hr by MTT assay; format: functional, cell-based
[3] = test system: HL-60; test: Cytotoxicity against Homo sapiens (human) HL60 cells after 96 hr by MTT assay; format: functional, cell-based
[4] = test system: Escherichia coli; test: Antibacterial activity against Escherichia coli at 1 ug/ml after 24 hr by well diffusion method; format: functional; conditions: read-out: IZ
[5] = test system: Proteus vulgaris; test: Antibacterial activity against Proteus vulgaris at 1 ug/ml after 24 hr by well diffusion method; format: functional; conditions: for zone of inhibition at 1 µg/mL: read-out: IZ
[6] = test system: Pectobacterium carotovorum; test: Antibacterial activity against Pectobacterium carotovorum at 1 ug/ml after 24 hr by well diffusion method; format: functional; conditions: for zone of inhibition at 1 µg/mL: read-out: IZ
[7] = test system: Bacillus subtilis; test: Antibacterial activity against Bacillus subtilis at 1 ug/ml after 24 hr by well diffusion method; format: functional; conditions: read-out: IZ
[8] = test system: Rhizoctonia solani; test: Antifungal activity against Rhizoctonia solani at 1 ug/ml after 48 hr by well diffusion method; format: functional; conditions: for zone of inhibition at 1 µg/mL: read-out: IZ
[9] = test system: Lasiodiplodia theobromae; test: Antifungal activity against Lasiodiplodia theobromae at 1 ug/ml after 48 hr by well diffusion method; format: functional; conditions: for zone of inhibition at 1 µg/mL: read-out: IZ
[10] = test system: Penicillium expansum; test: Antifungal activity against Penicillium expansum at 1 ug/ml after 48 hr by well diffusion method; format: functional; conditions: read-out: IZ
[11] = test system: Micrococcus luteus; test: Antibacterial activity against Micrococcus luteus at 1 ug/ml after 24 hr by well diffusion method; format: functional; conditions: for zone of inhibition at 1 µg/mL: read-out: IZ
[12] = test system: Klebsiella pneumoniae; test: Antibacterial activity against Klebsiella pneumoniae at 1 ug/ml after 24 hr by well diffusion method; format: functional; conditions: read-out: IZ
[13] = test system: Enterococcus faecalis; test: Antibacterial activity against Enterococcus faecalis at 1 ug/ml after 24 hr by well diffusion method; format: functional; conditions: for zone of inhibition at 1 µg/mL: read-out: IZ
[14] = test system: Streptococcus faecalis; test: Antibacterial activity against Streptococcus faecalis at 1 ug/ml after 24 hr by well diffusion method; conditions: read-out: IZ
[15] = Homo sapiens, HL-60, 96 h, read-out: IC50
[16] = Homo sapiens, U-937, 96 h, read-out: IC50

| SMILES | zone of inhibition at 1 µg/mL [1] | IC50 [3, 15] | zone of inhibition at 1 µg/mL [4] | zone of inhibition at 1 µg/mL [5] | inhibition zone (IZ) [6] | zone of inhibition at 1 µg/mL [7] | inhibition zone (IZ) [8] | zone of inhibition at 1 µg/mL [9] | zone of inhibition at 1 µg/mL [10] | zone of inhibition at 1 µg/mL [11] | zone of inhibition at 1 µg/mL [12] | zone of inhibition at 1 µg/mL [13] | zone of inhibition at 1 µg/mL [14] | IC50 [2, 16] | zone of inhibition at 1 µg/mL [6] | zone of inhibition at 1 µg/mL [8] | further results |
| --- | --- | --- | --- | --- | --- | --- | --- | --- | --- | --- | --- | --- | --- | --- | --- | --- | --- |
| Cc1nnc(NN=C(C#N)C#N)s1 | 12 mm | 28.1 µM | 6 mm | 10 mm | inactive | 10 mm | inactive | 8 mm | 15 mm | 7 mm | 8 mm | 9 mm | 6 mm |  |  |  | IC50 ([2]; u-937): Not Active |
| CCOC(=O)/C(C#N)=N/Nc1nnc(CC)s1 | 12 mm |  | 9 mm |  | inactive | 9 mm | inactive | 10 mm | 16 mm | 6 mm | 7 mm | 6 mm | 5 mm |  |  |  | inhibition zone (IZ) [5]: inactive |
| O=NN(CCCl)C(=O)NCCCl [CARMUSTINE] |  | 30.5 µM |  |  |  |  |  |  |  |  |  |  |  | 12.3 µM |  |  |  |
| CCc1nnc(NN=C(C#N)C#N)s1 | 12 mm |  | 9 mm |  |  | 11 mm | inactive | 15 mm | 16 mm | 6 mm | 7 mm | 7 mm | 8 mm |  | 7 mm |  | inhibition zone (IZ) [5]: inactive |
| O=c1[nH]cc(F)c(=O)[nH]1 [FLUOROURACIL] |  | 266 µM |  |  |  |  |  |  |  |  |  |  |  | 4.7 µM |  |  |  |
| CC(=O)C(=NNc1nnc(C)s1)C(C)=O | 12 mm | 23 µM | 8 mm | 7 mm |  | 7 mm |  | 6 mm | 18 mm |  | 8 mm | 8 mm | 7 mm | 24.7 µM | 6 mm | 4 mm | inhibition zone (IZ) [11]: inactive |
| CCOC(=O)/C(C#N)=N/Nc1nnc(C)s1 | 11 mm | 22.1 µM | 7 mm | 8 mm | inactive | 8 mm | inactive | 7 mm | 17 mm |  | 7 mm | 7 mm | 6 mm | 19.3 µM |  |  | inhibition zone (IZ) [11]: inactive |
| CC1(C)S[C@@H]2[C@H](NC(=O)[C@H](N)c3ccccc3)C(=O)N2[C@H]1C(=O)O [AMPICILLIN] | 31 mm |  | 28 mm | 33 mm |  | 30 mm |  |  | 35 mm | 32 mm | 29 mm |  | 30 mm |  | 31 mm | 29 mm | inhibition zone (IZ) [9]: inactive; inhibition zone (IZ) [13]: inactive |
| CCc1nnc(NN=C(C(C)=O)C(C)=O)s1 | 10 mm |  | 8 mm | 6 mm |  | 8 mm |  | 7 mm | 14 mm | 8 mm | 5 mm | 8 mm | 8 mm |  | 7 mm | 6 mm |  |
| NC(=O)NO [HYDROXYUREA] |  |  |  |  |  |  |  |  |  |  |  |  |  |  |  |  | IC50 ([3]; hl-60): Not Active |
